The results in this text go back to publication PMC2748101, “Transcriptome analysis of the responses of Staphylococcus aureus to antimicrobial peptides and characterization of the roles of vraDE and vraSR in antimicrobial resistance” (BMC Genomics, 2009).

Values after ≈ are worked out from the molar mass of the structure shown. Values joined by “and” are separate entries in the source; they are usually repeats but may differ in a detail not shown here. Identical values can stand only once. Where no end group is shown, it is not given here.

Assay [1] has as its system S. aureus Newman. The conditions noted are these: for MIC: S. aureus Newman, Mueller-Hinton broth, 16-24 h, 37°C, two-fold dilution series, performed twice.
In another assay the test system is ΔvraSR/S. aureus Newman. The conditions noted are these: for Effect of the ΔvraSR mutation on sensitivity: MIC, 100%, 50% (LL-37, nisin, Pep5) or 25% (hBD3) Mueller-Hinton broth; for MIC: ΔvraSR/S. aureus Newman, 16-24 h, 37°C, two-fold dilution series, performed twice.
A further assay deals with ΔvraDE/S. aureus Newman. The settings on record: ΔvraDE/S. aureus Newman; Mueller-Hinton broth, 16-24 h, 37°C, two-fold dilution series, performed twice.
The test system of the next assay is S. aureus RN4220. The conditions noted are these: Mueller-Hinton broth, 16-24 h, 37°C, two-fold dilution series, performed twice.
A further assay has as its system ΔvraSR/ RN4220. The settings on record: Mueller-Hinton broth, 16-24 h, 37°C, two-fold dilution series, performed twice.
In the next assay the test system is ΔvraDE/ RN4220. The conditions noted are these: Mueller-Hinton broth, 16-24 h, 37°C, two-fold dilution series, performed twice.
The subject of assay [2] is S. aureus Newman. Kind of assay: qRT-PCR of gene induction in treated wild-type cells. The assay is classed as cell-based, Staphylococcus aureus. The settings on record: 10 min; for Fold induction SA0205 / Fold induction groEL / Fold induction prsA / Fold induction vraD: 5 × MIC (temporin-L-NH2 subinhibitory 2 μg/ml, pentaglycine 20 μg/ml), treated/untreated, mean of three experiments (SD).

Assay [3] deals with S. aureus Newman. The assay is classed as cell-based, Staphylococcus aureus.

Take `CCCCCCCCCC(=O)N[C@@H](Cc1c[nH]c2ccccc12)C(=O)N[C@H](CC(N)=O)C(=O)N[C@@H](CC(=O)O)C(=O)N[C@@H]1C(=O)NCC(=O)N[C@@H](CCCN)C(=O)N[C@@H](CC(=O)O)C(=O)N[C@H](C)C(=O)N[C@@H](CC(=O)O)C(=O)NCC(=O)N[C@H](CO)C(=O)N[C@@H]([C@H](C)CC(=O)O)C(=O)N[C@@H](CC(=O)c2ccccc2N)C(=O)O[C@@H]1C` [Daptomycin]: the minimum inhibitory concentration (MIC) against S. aureus Newman [1], in the assay on ΔvraSR/S. aureus Newman (Mueller-Hinton broth), in the assay with ΔvraDE/S. aureus Newman, against S. aureus RN4220, in the assay on ΔvraSR/ RN4220 and in the assay with ΔvraDE/ RN4220 was 2.5 µg/mL (≈ 1.54 µM) throughout. Moreover, in the assay on ΔvraSR/S. aureus Newman, the “Effect of the ΔvraSR mutation on sensitivity” value (from here on “Effect of the ΔvraSR mutation”) is “did not affect the sensitivity”.
Turning to “A(D-Glu)K(D-Ala)GGGGGA(D-Glu)K(D-Ala) [Pentaglysin]”, the “Induction of vraD, SA0205, prsA and groEL (in words)” value in the assay on S. aureus Newman [2] (20 μg/ml) is “did not induce any of the four genes”. Moreover, in the assay on S. aureus Newman [2], the “Fold induction SA0205” value was 1.3 (0.1) fold, the “Fold induction groEL” value is on record as 1.1 (0.0) fold, the “Fold induction prsA” value is 1.3 (0.0) fold and the “Fold induction vraD” value is recorded as 1.0 (0.0) fold. In the assay on S. aureus Newman [1] (20 μg/ml), the “Antimicrobial activity at the concentration used” value was “not antimicrobial”.
On to “ALWKTLLKKVLKAAAK-NH2 [Dermaseptin K4-S4(1-16)-NH2]”, for which the “Number of genes with decreased expression” value in the assay with S. aureus Newman [3] was found to be 134 genes. Besides, in the assay with S. aureus Newman [3] (n=3), the “Fold induction SA0336” value was 2.2, 2.1, 2.1 fold; the “Fold induction SA0342” value is on record as 2.2, 2.2 fold; the “Fold induction SA0358” value was 2.4, 2.4 fold; the “Fold induction SA0428” value was 2.3 fold and 3.6, 2.4, 2.3 fold. Besides, in the assay on S. aureus Newman [3] (n=3), the “Fold induction SA0526” value is reported as 2.2, 2.0 fold; the “Fold induction SA0591” value was 2.1 fold and 3.0, 3.3, 2.1 fold; the “Fold induction SA0825 (spsA)” value was 2.0 fold and 2.6, 3.5, 2.0 fold; the “Fold induction SA0826 (spsB)” value is given as 2.1, 2.7, 2.0 fold. In the assay on S. aureus Newman [3] (n=3), the “Fold induction SA0903” value is 2.6 fold and 2.1, 4.1, 2.6 fold; the “Fold induction SA0914” value is 2.3, 2.5, 2.0 fold; the “Fold induction SA0962” value is reported as 2.4, 2.8, 2.4 fold; the “Fold induction SA1184 (citB)” value is 2.5, 2.4, 2.0 fold. Also, in the assay on S. aureus Newman [3] (n=3), the “Fold induction SA1217” value is 3.0, 2.4 fold; the “Fold induction SA1218 (pstB)” value was 2.9 fold; the “Fold induction SA1219” value is 4.2 fold and 5.4, 4.2 fold; the “Fold induction SA1220” value is given as 2.3, 2.1 fold. In the assay on S. aureus Newman [3] (n=3), the “Fold induction SA1221” value is 3.1, 2.8 fold; the “Fold induction SA1235” value is given as 2.4, 2.1, 2.6 fold; the “Fold induction SA1476” value was 3.3 fold and 4.2, 5.3, 3.3 fold; the “Fold induction SA1477” value is given as 5.5, 6.8, 3.8 fold. In addition, in the assay on S. aureus Newman [3] (n=3), the “Fold induction SA1517 (citC)” value is 3.1 fold and 4.9, 5.8, 3.1 fold; the “Fold induction SA1518 (citZ)” value was 6.0, 6.7, 3.6 fold; the “Fold induction SA1549 (htrA)” value was 2.0 fold and 2.9, 3.0, 2.0 fold; the “Fold induction SA1659 (prsA)” value is 2.9 fold and 3.2, 4.5, 2.9 fold. Also, in the assay with S. aureus Newman [3] (n=3), the “Fold induction SA1700 (vraR)” value is reported as 3.2, 5.0, 2.8 fold; the “Fold induction SA1701 (vraS)” value is 2.5 fold and 3.9, 5.3, 2.5 fold; the “Fold induction SA1702” value is 4.3, 5.7, 2.6 fold; the “Fold induction SA1703” value is listed as 3.7, 4.2, 2.1 fold. Moreover, in the assay with S. aureus Newman [3] (n=3), the “Fold induction SA1706” value was 2.0, 2.0, 2.1 fold; the “Fold induction SA1710” value was 2.2, 2.4, 2.1 fold; the “Fold induction SA1820” value is 2.2 fold and 3.6, 3.0, 2.2 fold; the “Fold induction SA1836 (groEL)” value was 2.2 fold and 3.8, 4.3, 2.2 fold. In addition, in the assay with S. aureus Newman [3] (n=3), the “Fold induction SA1837 (groES)” value is on record as 3.2, 3.6, 2.4 fold; the “Fold induction SA1858 (ilvD)” value was 4.9, 2.5, 2.1 fold; the “Fold induction SA1860” value is listed as 15.7, 4.3, 2.1 fold; the “Fold induction SA1863 (leuB)” value was 9.7, 4.2, 2.2 fold. In the assay with S. aureus Newman [3] (n=3), the “Fold induction SA1971” value is on record as 2.2, 2.5, 2.2 fold; the “Fold induction SA1990” value was 2.2 fold and 3.4, 2.6, 2.2 fold; the “Fold induction SA2113” value was 2.2 fold and 2.2, 3.7, 2.2 fold; the “Fold induction SA2301” value is recorded as 2.3, 2.2, 2.1 fold. Further, in the assay on S. aureus Newman [3] (n=3), the “Fold induction SA2343” value is 2.7 fold and 4.3, 4.3, 2.7 fold; the “Fold induction SA2481” value is 2.1, 3.1, 2.7 fold; the “Fold induction SA2493 (vraE)” value is listed as 3.4, 11.8, 6.2 fold; the “Fold induction SAS016” value was 5.4 fold and 5.0, 7.4, 5.4 fold.
Regarding FVQWFSKFLGRIL-NH2 [Temporin L-NH2], the MIC against S. aureus Newman [1] is 6 µg/mL; with ΔvraSR/S. aureus Newman (Mueller-Hinton broth), 6 µg/mL; against ΔvraDE/S. aureus Newman, 6 µg/mL; with S. aureus RN4220 it was 3 µg/mL; with ΔvraSR/ RN4220 it was 3 µg/mL; in the assay with ΔvraDE/ RN4220, 3 µg/mL.
As for “KNLRRIIRKIIHIIKKYG-NH2 [Ovispirin-1-NH2]”, the minimal inhibitory concentration (MIC) was 20 µg/mL against S. aureus Newman [1]; 10 µg/mL against ΔvraSR/S. aureus Newman (Mueller-Hinton broth); 20 µg/mL against ΔvraDE/S. aureus Newman; 20 µg/mL against S. aureus RN4220; 10 µg/mL against ΔvraSR/ RN4220; 20 µg/mL in the assay with ΔvraDE/ RN4220.
For the compound “LL-37: human cathelicidin (LLGDFFRKSKEKIGKEFKRIVQRIKDFLRNLVPRTES; Antibacterial peptide LL-37; UniProt P49913 134-170, looked up)”, in the assay on ΔvraSR/S. aureus Newman, the “Effect of the ΔvraSR mutation” value was “did not affect the sensitivity”.
Consider “Nisin: lantibiotic (ITSISLCTPGCKTGALMGCNMKTATCHCSIHVSK; also: lantibiotic, modified residues and thioether rings not given here; UniProt P13068 24-57, looked up)”, for which the MIC against S. aureus Newman [1] and in the assay with S. aureus RN4220 was 6.25 µg/mL each time. Moreover, the “Effect of the ΔvraSR mutation” value in the assay on ΔvraSR/S. aureus Newman is “did not affect the sensitivity”.
Turning to Teicoplanin, the “Fold induction SA0205” value with S. aureus Newman [2] is on record as 35.7 (6.9) fold. For the same compound, the “Fold induction groEL” value in the assay on S. aureus Newman [2] was 3.0 (0.3) fold. The “Fold induction prsA” value in the assay on S. aureus Newman [2] is 32.1 (4.1) fold. In the assay with S. aureus Newman [2], the “Fold induction vraD” value is listed as 2.5 (0.3) fold. The MIC against S. aureus Newman [1] is 0.5 µg/mL; against ΔvraSR/S. aureus Newman (Mueller-Hinton broth) it was 0.125 µg/mL; against ΔvraDE/S. aureus Newman, 0.5 µg/mL; in the assay on S. aureus RN4220, 0.25 µg/mL; in the assay on ΔvraSR/ RN4220 it was 0.06 µg/mL. The “Difference in MIC (increased sensitivity), ΔvraSR mutant versus wild-type” value with ΔvraSR/S. aureus Newman (Mueller-Hinton broth) came out at 4 fold.
As to “hBD3 (GIINTLQKYYCRVRGGRCAVLSCLPKEEQIGKCSTRGRKCCRRKK; UniProt P81534 23-67, looked up)”, the “Effect of the ΔvraSR mutation” value in the assay on ΔvraSR/S. aureus Newman was “did not affect the sensitivity”.
